Test results published in patent US20050032750A1, “Treating androgen deficiency in female (ADIF)-associated conditions with SARMS” (priority 2003, published 2005).

Columns and labels:
[1] = tested on: myosin heavy chain (MHC) IIb mRNA; assay: Myosin heavy chain (MHC) IIb mRNA expression in masseter muscle by RT-PCR; type: in vivo, rat; conditions: intact female rats, untreated control = 100%
Excerpt: MHC is the predominant protein in skeletal muscle encoded by a multigene family expressed in a tissue-specific and developmentally regulated manner. In steady state, MRNA expression usually parallels the pattern of MHC protein expression. Because transcription of MHC MRNA occurs in advance of MHC protein translation, and the increased sensitivity of RT-PCR compared to western blotting, rapid changes in mRNA expression can be detected and used to analyze the subtle dynamic effects of muscle anabolism.
The masseter muscle dissected from untreated intact female rats was set as the control level (representing 100%) of MHC IIb expression (FIG. 1A). Intact female rats treated with androgens were evaluated against the untreated controls for the effect of treatment on MHC IIb from masseter.

[2] = tested on: ovariectomized female rats; assay: Bone mineral content by whole body DEXA after ovariectomy (Example 2); type: in vivo, rat; conditions: OVX female rats, 30 day treatment period
castrated male rats = assay: Androgenic and anabolic effects in castrated male rats; type: in vivo, rat
[3] = tested on: ovariectomized (OVX) rat model of postmenopausal bone loss; assay: Whole body DEXA analysis (BMD, percent fat mass, body weight) in OVX rat model; type: in vivo; conditions: for change in whole body BMD between day 0 and day 120: 120 days; for body weight gain: day 0 to 120
Procedure: (§1) One hundred twenty female Sprague-Dawley rats were purchased from Harlan (Indiapolis, Ind.). The animals were housed three per cage and were allowed free access to tap water and commercial rat chow (Harlan Teklad 22/5 rodent diet—8640). During the course of the study, the animals were maintained on a 12 hr light:dark cycle. This study was reviewed and approved by the Institutional Laboratory Care and Use Committee of The Ohio State University. […] Dosing solutions were prepared daily by dissolving drug in dimethyl sulfoxide (DMSO) and diluting in polyethylene glycol 300 (PEG 300). All doses were administered for 120 days via daily subcutaneous injections in a volume of 0.20 ml.
Total body bone mineral density (BMD), percent fat mass (FM), and body weight (BW) were determined by dual energy x-ray absorptiometry (DEXA) (GE, Lunar Prodigy™) using the small animal software (Lunar enCORE, version 6.60.041) on days 0 and 120. Total body data was obtained by selecting an area encompassing the entire animal as the region of interest during data processing. For scanning, the animals were anesthetized with ketariine:xylazine (87:13 mg/kg).
(§2) The results were analyzed using Tukey's honestly significant difference method in a one-way analysis of variance and expressed as mean ±S.E.M. Significance was reported when P<0.05. SPSS 11.5.0 (Chicago, Ill.) was used to analyze the results.

[4] = tested on: ovariectomized (OVX) rat model of postmenopausal bone loss; assay: Ex vivo DEXA analysis of L2-L4 vertebrae BMD; type: in vivo; conditions: 120 days
Procedure: as §1
Immediately following the whole body DEXA scan on day 120, groups 1-11 were sacrificed, and the lumbar vertebrae, femurs, and tibia were excised and cleared of soft tissue. Group 12 was sacrificed at day 210. The excised bones were scanned through a 3 in deep room temperature water bath, to simulate soft tissue and prevent beam-hardening effects. The L2-L4 vertebrae were selected as a region of interest and analyzed for BMD by DEXA.
as §2

[5] = tested on: ovariectomized (OVX) rat model of postmenopausal bone loss; assay: Femoral pQCT analysis of mid-shaft cortical content; type: in vivo; conditions: 120 days
Procedure: as §1
(§3) The right femurs from groups 5, 6, 7, 9, 10, and 12 were sent to Skeletech, Inc. (Bothell, Wash.) for pQCT analysis and biomechanical testing. The femur was subject to pQCT scan using a Stratec XCT RM and associated software (Stratec Medizintechnik GmbH, Pforzheim, Germany. Software version 5.40 C). The femur was scanned at the mid-shaft. The position was verified using scout views and scan results from one 0.5 mm slice perpendicular to the long axis of the femur. Cortical bone mineral content was analyzed. After pQCT analysis, the de-fleshed whole femur was used in the three point bending test. The femur was placed on the lower supports of a three point bending fixture with anterior side facing downward in an Instron Mechanical Testing Machine (Instron 4465 retrofitted to 5500). The upper loading device was aligned to the center of the femoral shaft. The load was applied at a constant displacement rate of 6 mm/min until the femur broke. The location of maximal load was selected manually and values were calculated by machine's software (Merlin II, Instron). Maximum load was measured directly by the mechanical testing machine. The length between two supports was set to 14mm.
as §2

[6] = tested on: ovariectomized (OVX) rat model of postmenopausal bone loss; assay: Femoral three point bending test (maximum load); type: in vivo; conditions: OVX rats, 120 days
Procedure: as §1, §3
The results were analyzed using Tukey's honestly significant difference method in a one-way analysis of variance and expressed as mean ±S.E.M. Significance was reported when P<0.05. […]

For `CCC(=O)O[C@H]1CC[C@H]2[C@@H]3CCC4=CC(=O)CC[C@]4(C)[C@H]3CC[C@]12C` [testosterone propionate, reference compound], the “transcription of MHC type IIb, % of untreated control” value [1] was 133%.
With `CC(=O)Nc1ccc(OC[C@](C)(O)C(=O)Nc2ccc([N+](=O)[O-])c(C(F)(F)F)c2)cc1` [Compound VI, S-3-(4-acetylamino-phenoxy)-2-hydroxy-2-methyl-N-(4-nitro-3-trifluoromethyl-phenyl)-propionamide] the “transcription of MHC type IIb, % of untreated control” value [1] was 137%, the “bone mineral content compared with intact control or placebo-treated groups” value [2] was “maintained and improved the bone mineral content” and the “prostate restored, % of intact animals” value (castrated male rats) was 34%. For the same molecule, the “seminal vesicles restored, % of intact animals” value (castrated male rats) was 28%, the “change in whole body BMD between day 0 and day 120” value (“change” below) ([3]; OVX rats, 0.1 mg/day sc) was “not significantly different from OVX controls” and the “percent body fat at day 120” value ([3]; OVX rats, 3.0 mg/day) was “not different from intact controls”. For the same molecule, the body weight gain ([3]; OVX rats, 3.0 mg/day) was “gained more weight than the other groups”, the “percent fat mass at day 120” value ([3]; OVX rats, 0.1-3.0 mg/day) was “dose dependent decrease in percent fat mass” and the body weight gain ([3]; OVX rats, 0.1-3.0 mg/day) was “dose-dependent trend in body weight gain”. For the same molecule, the “change” value ([3]; OVX rats, doses greater than 0.1 mg/day sc) was “prevent the loss of whole body BMD”, the “mean percent fat mass at day 120” value ([3]; intact rats, 1 mg/day) was “lower in intact Compound VI treated animals than intact controls” and the “L2-L4 BMD” value ([4]; OVX rats, 0.5 and 3.0 mg/kg dose groups) was “significantly higher BMD than the OVX control group”. For the same molecule, the “L2-L4 BMD” value ([4]; OVX rats, greater than 0.3 mg/day) was “not significantly different from intact controls”, the “Cortical Content (CC) of mid-shaft femur” value ([5]; OVX rats, 1.0 mg/day) was “completely prevent the loss in CC” and the “Cortical Content (CC) of mid-shaft femur” value ([5]; OVX rats, 3.0 mg/day) was “increase the CC in OVX animals above that of intact animals”. The “Cortical Content (CC) of mid-shaft femur” value ([5]; intact rats, 1 mg/day) was “not different from intact controls”, the “femur biomechanical strength (maximum load)” value (“femur biomechanical strength” for short) ([6]; 1.0 mg/day) was “prevent the loss of bone strength” and the “femur biomechanical strength” value ([6]; 3.0 mg/day) was “increase in maximum load”.
For `C[C@]12CCC(=O)C[C@@H]1CC[C@@H]1[C@@H]2CC[C@]2(C)[C@@H](O)CC[C@@H]12` [DHT, dihydrotestosterone, reference compound], the “change” value ([3]; OVX rats, DHT 1 mg/day sc) was “not significantly different from OVX controls”, the “change” value ([3]; intact rats, DHT 1 mg/day sc) was “prevented the age related increase in BMD” and the “L2-L4 BMD” value ([4]; OVX rats, DHT 1 mg/day) was “only able to partially maintain the L2-L4 BMD”. For the same molecule, the “L2-L4 BMD” value ([4]; intact rats, DHT 1 mg/day) was “caused a reduction in L2-L4 BMD”, the “Cortical Content (CC) of mid-shaft femur” value ([5]; OVX rats, DHT 1 mg/day) was “partially prevented the loss in CC, these results were not significant” and the “femur biomechanical strength” value ([6]; DHT 1 mg/day) was “prevent the loss in bone strength”.
